In patent US9434711B2 (Janssen Pharmaceutica, NV, priority 2007, dated 2016):

Key:
male Sprague-Dawley rats = assay: Cold-Evoked Cardiovascular Pressor Responses (anesthetized rat cold pressor paradigm); assay type: in vivo; settings: HPbCD, 1.5 hours relative to Cold Challenge, Na salt form
Source text: Compounds of the formula (I) can be tested in animals and humans for their ability to mitigate cardiovascular pressor responses evoked by cold exposure. Seasonal environmental cooling is directly associated with elevated blood pressure and an increased incidence of coronary events in human populations worldwide (Barnett, A G et al. J Epidemiol Community Heath 2005, 59 551-557). Cold-evoked pulmonary hypertention and cold aggravation of chronic obstructive pulmonary disease are clinical indications susceptible to heightened cardiopulmonary sensitivity to cold (Marno P et al. Eur Respiratory Review 2006, 15 (101): 185.; Acikel M et al Int J of Cardiol (2004) 97: 187-192). The clinical cold pressor test assesses changes in blood pressure (BP) and cold pain perception during a 2-3 minute immersion of one hand into ice water. […] Compounds of the formula (I) can be studied in an anesthetized rat cold pressor paradigm to determine whether TRPM8 antagonism would interfere with the blood pressure pressor response to cold stimulation of the forepaws. Male Sprague-Dawley rats (300-450 g) anesthetized with sodium pentobarbital are instrumented with a jugular catheter and an indwelling carotid artery cannula connected to a pressure transducer. Vehicle (e.g. 20% HPbCD in sterile water) or test compound is infused (1 mL/kg) over one minute through the intravenous catheter. Ten minutes later both forelimbs are packed in crushed ice for 5 minutes. Alternatively, the test compound and vehicle treatments may be administered orally at an appropriated time prior to the surgical cannulations and cold challenge. Percent changes in mean arterial pressure in response to this cold stimulus are calculated for vehicle and test compound pretreatments. Percent inhibition attributed to treatment with test compound is then determined using the following formula: % Inhibition=[1−(cold evoked % change in BP post-test compound/cold evoked % change in BP post-vehicle)]×100.

Male Sprague Dawley rats = assay: Rightward Shift of Icilin Dose Effect Curve in Rats; assay type: in vivo; settings: Rattus norvegicus; compound 3 mg/kg p.o., 60 pre-icilin; icilin i.p.; read-out: Icilin ED50, mg/kg, i.p., compound pretreatment
Experimental: Male Sprague Dawley rats (200-400 g, Charles River Labs, n=6-9/treatment) were administered icilin in a suitable vehicle (e.g. PEG-400, 10% Solutol) at 0.1-30 mg/kg, i.p. Spontaneous “wet-dog” shakes were counted 10-20 minutes post-icilin in order to generate a icilin dose-effect curve. A compound of the present invention was administered orally in hydroxypropyl-β-cyclodextrin 60 minutes before icilin challenge to assess the compound's ability to inhibit spontaneous “wet-dog” shakes (WDS) produced by a range of icilin doses. The ED50 of the icilin dose-effect curve generated in the presence of TRPM8 antagonist may be compared to that generated in the presence of vehicle to determine the magnitude of rightward shift as shown below in Table 7.

## Cc1c(N(Cc2ccc(F)c(C(F)(F)F)c2)S(=O)(=O)c2ccc(C(=O)O)cc2)sc2ccccc12 [Compound 306, N-(3-Methyl-benzo[b]thiophen-2-yl)-N-(4-fluoro-3-trifluoromethyl-benzyl)-4-carboxy-benzenesulfonamide]
Male Sprague-Dawley rats; dose 1 p.o.
  Percent Inhibition, relative to vehicle: 16%
Male Sprague-Dawley rats; dose 3 p.o.
  Percent Inhibition, relative to vehicle: 41%
Male Sprague-Dawley rats; dose 10 p.o.
  Percent Inhibition, relative to vehicle: 62%
Male Sprague-Dawley rats; dose 30 p.o.
  Percent Inhibition, relative to vehicle: 75%
Male Sprague Dawley rats
  ED50: 2.96 mg/kg
